Article PMC8226722, “Comparison of Solution Chemical Properties and Biological Activity of Ruthenium Complexes of Selected β-Diketone, 8-Hydroxyquinoline and Pyrithione Ligands” (Pharmaceuticals, 2021)

Assays:
[1] = system: HeLa 229 human cervix carcinoma cells; test: MTT cytotoxicity in HeLa 229 cells (maximum non-toxic concentration); conditions: 48 h
Method: (§8) HeLa 229 cells (ATCC) and Vero cells (ATCC) were cultured in minimal essential medium (MEM) (Sigma, Steinheim, Germany) with Earle salts supplemented with 10% heat-inactivated fetal bovine serum (FBS) (Gibco; ThermoFisher Scientific, Inc., Waltham, MA, USA), 2 mM L-glutamine, 1× non-essential amino acids, 8 mM HEPES, 25 μg/mL gentamycin and 1 µg/mL fungisone. The cells were incubated for 1 h at room temperature to reduce the edge effect and then overnight at 37 °C, 5% CO2 to obtain a 90% confluent cell layer.
(§9) The density of cells was 4 × 10^4 cells/well in 100 µL of MEM with Earle salts supplemented with 10% heat-inactivated FBS, 2 mM L-glutamine, 1× MEM vitamins, 1× non-essential amino acids, 0.005% Na-pyruvate, 25 µg/mL gentamycin, 1 µg/mL fungisone). The plates were incubated for 1 h room temperature and then overnight at 37 °C, 5% CO2. Next day, when the cells reached a ~90% confluency, the medium was supplemented with the serial 2-fold dilutions of the complexes in three parallel wells for each concentration. […] After 24 h incubation for Vero cells and 48 h incubation for HeLa cells, 10 µL of the MTT (Sigma, Steinheim, Germany) labelling reagent (final concentration 0.5 mg/mL) was added to each well and the plate was incubated for 4 h at 37 °C, 5% CO2. After the incubation, 100 µL of the solubilisation solution (10% SDS in 1 M HCl) was added into each well, and the plate was allowed to stand overnight in the incubator at 37 °C, 5% CO2.

[2] = system: Colo 205 chemo-sensitive human colonic adenocarcinoma cell line; test: MTT cytotoxicity assay, Colo 205; assay type: cell-based; conditions: for IC50: 72 h, MTT; for S.I. MRC-5/Colo 205: ratio of the indicated IC50 values
Method: (§1) Human colonic adenocarcinoma cell lines Colo 205 doxorubicin-sensitive (ATCC-CCL-222) and Colo 320/MDR-LRP multidrug resistant expressing ABCB1 (MDR1)-LRP (ATCC-CCL-220.1) were purchased from LGC Promochem (Teddington, UK). […] Cell lines were incubated at 37 °C, in a 5% CO2, 95% air atmosphere. The semi-adherent human colon cancer cells were detached with Trypsin-Versene (EDTA, Sigma, Steinheim, Germany) solution for 5 min at 37 °C. MRC-5 human embryonal lung fibroblast cell lines (ATCC CCL-171) were purchased from LGC Promochem. […] The cell lines were incubated at 37 °C, in a 5% CO2, 95% air atmosphere.
(§2) In the study MRC-5 non-cancerous human embryonic lung fibroblast and human colonic adenocarcinoma cell lines (doxorubicin-sensitive Colo 205 and multidrug resistant Colo 320 colonic adenocarcinoma cells) were used to determine the effect of compounds on cell growth. The effects of increasing concentrations of compounds on cell growth were tested in 96-well flat-bottomed microtiter plates. The stock solutions of the compounds were prepared in DMSO, and in the final samples the DMSO content was always lower than 1%. The compounds were diluted in a volume of 100 μL of medium.
(§3) In case of the colonic adenocarcinoma cells, the two-fold serial dilutions of compounds were prepared in 100 μL of RPMI 1640, horizontally. The semi-adherent colonic adenocarcinoma cells were treated with Trypsin-Versene (EDTA) solution. They were adjusted to a density of 1 × 10^4 cells in 100 μL of RPMI 1640 medium, and were added to each well, with the exception of the medium control wells. The final volume of the wells containing compounds and cells was 200 μL.
(§4) The culture plates were incubated at 37 °C for 72 h; at the end of the incubation period, 20 μL of MTT (Sigma) solution (from a stock solution of 5 mg/mL) were added to each well. After incubation at 37 °C for 4 h, 100 μL of sodium dodecyl sulfate (SDS) (Sigma) solution (10% in 0.01 M HCl) were added to each well and the plates were further incubated at 37 °C overnight. Cell growth was determined by measuring the optical density (OD) at 540/630 nm with Multiscan EX ELISA reader (Thermo Labsystems, Cheshire, WA, USA). […] Curves were fitted by Prism software (GraphPad Software Inc., San Diego, CA, USA) using the sigmoidal dose-response model (comparing variable and fixed slopes). The IC50 values were obtained from at least 3 independent experiments.

[3] = molecular target: ABCB1 (P-glycoprotein) efflux pump (Homo sapiens, UniProt P08183); test: Rhodamine 123 uptake/retention fluorescence assay (flow cytometry) in Colo 320 cells
Method: It is important to note, that the resistance of this cell line is primarily mediated by the overexpression of the ABC-transporter P-glycoprotein, which pumps out xenobiotics from the cytosol. […] This dye is membrane-permeable and is rapidly taken up by the cells; therefore, it can be effectively used for the screening of efflux pump inhibiting compounds. […] Then the fluorescence accumulation ratios (FAR) were calculated (Figure 1) according to the equation given in the Materials and Methods section. Verapamil was used as a reference inhibitor compound.
This fluorescence-based detection system uses verapamil (a first-generation, competitive EPI) as reference inhibitor. […] The tested compounds were added at different concentrations (2 and 20 µM; from 1 and 10 mM stock solutions, respectively) and the samples were incubated for 10 min at room temperature.
The parameters evaluated from flow cytometric experiments are forward scatter count (FSC, provides information about cell size); side scatter count (SSC, proportional to cell granularity or internal complexity); mean fluorescence of the cells (FL-1) and the computed FAR and FAR quotients (Table S1).

Vero cells = test: MTT cytotoxicity in Vero cells (maximum non-toxic concentration); conditions: 24 h
Method: The antiviral effect of complexes against HSV-2 was screened using Vero cells (originally isolated from kidney epithelial cells) to host the growing viruses.
as §8, §9

[4] = system: Enterococcus faecalis ATCC 29212; test: MIC determination (CLSI broth microdilution); assay type: cell-based; conditions: Gram-positive, ATCC 29212, 18 h
Method: (§5) Wild-type Escherichia coli K-12 AG100 strain [argE3 thi-1 rpsL xyl mtl Δ(gal-uvrB) supE44] expressing the AcrAB TolC EP at its basal level and Klebsiella pneumoniae ATCC 49,619 Gram-negative strains were studied in the experiments. Staphylococcus aureus ATCC 43,300 methicillin-resistant (MRSA) strain and Enterococcus faecalis ATCC 29,212 strain were used as Gram-positive strains in the assays. MIC values of the complexes were determined in 96-well plates based on the Clinical and Laboratory Standard Institute guidelines (CLSI guidelines). The stock solutions of the compounds (dissolved in DMSO using 10 mM concentration) were diluted in 100 μL of Mueller Hinton Broth. Then 10^−4 dilution of an overnight bacterial culture in 100 μL of medium was added to each well, with the exception of the medium control wells.

[5] = system: Klebsiella pneumoniae ATCC 49619; test: MIC determination (CLSI broth microdilution); assay type: cell-based; conditions: Gram-negative, ATCC 49619, 18 h
Method: as §5

[6] = system: Escherichia coli K-12 AG100; test: MIC determination (CLSI broth microdilution); assay type: cell-based; conditions: Gram-negative, AG100, 18 h
Method: as §5

[7] = system: Staphylococcus aureus ATCC 43300 methicillin-resistant (MRSA); test: MIC determination (CLSI broth microdilution); assay type: cell-based; conditions: Gram-positive, MRSA ATCC 43300, 18 h
Method: as §5

[8] = system: Colo 320 multidrug resistant human colonic adenocarcinoma cell line; test: MTT cytotoxicity assay, Colo 320; assay type: cell-based; conditions: for IC50: 72 h, MTT; for S.I. MRC-5/Colo 320: ratio of the indicated IC50 values
Method: as §1, §2, §3, §4

[9] = system: MRC-5 normal human embryonal lung fibroblast cells; test: MTT cytotoxicity assay, MRC-5; assay type: cell-based; conditions: 72 h
Method: as §1, §2, §3, §4

[10] = Solution stability and speciation (UV-vis, 1H-NMR, pH-potentiometry); conditions: PBS’, pH 7.4, 2% DMSO, up to 24 h
Method: In order to confirm our prediction, time-dependent UV-visible (UV-vis) spectra were recorded for complexes 5–8 at pH 7.4 in aqueous solution (in modified phosphate buffered saline (PBS) buffer—PBS’) and in Eagle’s minimum essential medium (EMEM) used for the cytotoxicity studies in the presence of 2% (v/v) dimethyl sulfoxide (DMSO). […] Additionally, ^1H-NMR spectra were recorded for more water-soluble complexes 6–8.
In order to compare the stability of 1 and 3 at physiological pH, a serial dilution was made and UV-vis spectra were recorded in a wide concentration range (10 μM–3 mM) (Figure S10).
(§6) Titrations were performed in a carbonate-free KOH solution (0.20 M). The exact concentration of HCl and KOH solutions was determined by pH-potentiometric titrations.
(§7) The path length (l) was usually 1 cm, and 2, 5, 20 or 50 mm cells were used occasionally. Equilibrium constants (proton dissociation, stability constants, conditional stability constants (K’7.4) for the formation of mim adducts) and the individual spectra of the species were calculated with the computer program PSEQUAD [55]. The spectrophotometric titrations were performed in aqueous solution of the complexes at 25.0 ± 0.1 °C at an ionic strength of 0.20 M (KCl). Spectrum of the solution of 200 μM complex upon addition of one or two equivalents of its own ligand or phen was also measured at pH 7.4. UV-vis spectra recorded for the complexes as a function of chloride concentrations or PTA (in case of the chlorido complexes) were used to investigate the co-ligand exchange processes at pH 7.4. […] In some cases, the measurements were performed in the presence of 1–2% (Cl^−/PTA exchange reactions) or 6–8% (v/v) (interaction of mim with complexes 2, 4) DMSO.
^1H-NMR stability studies were carried out on a Bruker Avance III HD 500 MHz instrument. All ^1H-NMR spectra were recorded on samples containing 10% (v/v) D2O with the WATERGATE water suppression pulse scheme using DSS internal standard. Stability of complexes 6–8 was checked over time by ^1H-NMR spectroscopy at 500 μM in PBS’ or in EMEM (with 10% (v/v) DMSO-d6).

physchem = test: physchem
Method: The solution speciation studies of complexes 1–4 were performed using UV-vis spectrophotometry and pH-potentiometry in the presence of 200 mM chloride ions.
as §6, §7

Sequence of ABCB1 (P-glycoprotein) efflux pump (P08183 whole entry): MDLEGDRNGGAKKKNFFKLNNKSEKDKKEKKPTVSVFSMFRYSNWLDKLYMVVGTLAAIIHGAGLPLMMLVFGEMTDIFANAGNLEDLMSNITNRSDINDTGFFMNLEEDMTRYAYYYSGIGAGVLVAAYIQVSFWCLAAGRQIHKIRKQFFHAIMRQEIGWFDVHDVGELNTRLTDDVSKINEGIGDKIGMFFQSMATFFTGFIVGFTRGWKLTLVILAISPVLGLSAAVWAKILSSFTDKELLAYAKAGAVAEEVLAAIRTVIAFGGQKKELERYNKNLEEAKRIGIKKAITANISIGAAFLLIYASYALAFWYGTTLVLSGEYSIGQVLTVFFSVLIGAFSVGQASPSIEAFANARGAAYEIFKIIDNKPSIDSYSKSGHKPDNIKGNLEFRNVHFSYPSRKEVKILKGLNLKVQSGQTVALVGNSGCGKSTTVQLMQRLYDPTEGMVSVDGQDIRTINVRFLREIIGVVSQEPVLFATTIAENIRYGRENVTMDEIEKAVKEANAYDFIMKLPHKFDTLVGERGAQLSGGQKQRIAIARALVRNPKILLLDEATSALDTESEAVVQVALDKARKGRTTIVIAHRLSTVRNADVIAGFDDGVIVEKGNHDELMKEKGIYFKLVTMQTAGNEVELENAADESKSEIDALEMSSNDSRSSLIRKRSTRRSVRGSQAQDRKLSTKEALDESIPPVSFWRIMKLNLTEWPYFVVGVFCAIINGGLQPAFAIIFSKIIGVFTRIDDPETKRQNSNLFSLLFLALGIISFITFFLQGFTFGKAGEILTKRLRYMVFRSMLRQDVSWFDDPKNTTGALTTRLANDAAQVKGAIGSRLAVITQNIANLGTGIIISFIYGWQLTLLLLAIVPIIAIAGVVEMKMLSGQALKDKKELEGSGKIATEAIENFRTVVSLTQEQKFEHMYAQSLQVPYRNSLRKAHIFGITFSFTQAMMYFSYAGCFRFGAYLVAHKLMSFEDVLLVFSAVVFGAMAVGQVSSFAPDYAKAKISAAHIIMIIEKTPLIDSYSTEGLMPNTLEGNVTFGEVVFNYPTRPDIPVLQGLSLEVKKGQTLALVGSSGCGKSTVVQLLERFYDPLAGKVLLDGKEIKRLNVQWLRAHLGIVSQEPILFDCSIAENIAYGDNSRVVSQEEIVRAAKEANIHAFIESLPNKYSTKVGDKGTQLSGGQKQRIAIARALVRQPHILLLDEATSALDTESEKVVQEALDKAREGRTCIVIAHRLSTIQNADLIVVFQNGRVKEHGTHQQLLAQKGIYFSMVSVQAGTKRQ

**Q.** For `Cc1ccc(C(C)C)cc1.[Cl-].[O-]c1c(I)cc(Cl)c2cccnc12.[Ru+2]` [complex 5], which “maximum non-toxic concentration, HeLa 229” value [1] is on record?
**A.** 25 µM

**Q.** What about the IC50 [2] of the same molecule?
**A.** 21 ± 2.4 µM

**Q.** What about the “S.I. MRC-5/Colo 205” value [2] of the same molecule?
**A.** 0.14

**Q.** And the “FAR fluorescence accumulation ratio” value ([3]; Colo 320, 2 μM)?
**A.** 6.19

**Q.** What about the “FAR quotient (FAR related to that of 20 μM verapamil)” value ([3]; Colo 320, 2 μM) of the same molecule?
**A.** 128.7%

**Q.** What about the “FSC forward scatter count” value ([3]; Colo 320, 2 μM) of the same molecule?
**A.** 1917

**Q.** What about the “SSC side scatter count” value ([3]; Colo 320, 2 μM) of the same molecule?
**A.** 840

**Q.** And the “FAR fluorescence accumulation ratio” value ([3]; Colo 320, 20 μM)?
**A.** 3.66

**Q.** What about the “FAR quotient (FAR related to that of 20 μM verapamil)” value ([3]; Colo 320, 20 μM) of the same molecule?
**A.** 76.0%

**Q.** And the “FSC forward scatter count” value ([3]; Colo 320, 20 μM)?
**A.** 1950

**Q.** And the “SSC side scatter count” value ([3]; Colo 320, 20 μM)?
**A.** 877

**Q.** And the “FL-1 mean fluorescence of the cells” value ([3]; Colo 320, rhodamine 123, 2 μM)?
**A.** 32.7

**Q.** And the “FL-1 mean fluorescence of the cells” value ([3]; Colo 320, rhodamine 123, 20 μM)?
**A.** 19.3

**Q.** What about the “FAR value” ([3]; Colo 320, tested at 2 μM and 20 μM) of the same molecule?
**A.** above 2

**Q.** And the “concentrations at which maximum cytotoxicity was observed, Vero” value (Vero cells)?
**A.** 12.5 to 100 µM

**Q.** And the “maximum non-toxic concentration, Vero” value (Vero cells)?
**A.** 6.25 µM

**Q.** And the “MIC E. faecalis” value [4]?
**A.** 12.5 µM

**Q.** What about the “MIC K. pneumoniae” value [5] of the same molecule?
**A.** >100 µM

**Q.** What about the “MIC E. coli” value [6] of the same molecule?
**A.** >100 µM

**Q.** What about the “MIC S. aureus” value [7] of the same molecule?
**A.** 25 µM

**Q.** And the IC50 [8]?
**A.** 13.7 ± 0.85 µM

**Q.** And the “S.I. MRC-5/Colo 320” value [8]?
**A.** 0.21

**Q.** What about the IC50 [9] of the same molecule?
**A.** 2.95 ± 0.71 µM

**Q.** And the “stability in PBS’ at pH 7.4, time-dependent UV-vis spectra” value [10]?
**A.** No characteristic UV-vis spectral changes within 24 h

**Q.** With `On1ccc2ccccc2c1=S` [HHiQT, 2-hydroxyisoquinoline-1(2H)-thione] as the molecule, how does the pKa (physchem) read?
**A.** 4.63 ± 0.08

**Q.** Which IC50 [2] does the source give for `Cc1ccc(C(C)C)cc1.[Cl][Ru]([Cl])[PH]12CN3CN(CN(C3)C1)C2` [RAPTA-C, [Ru(η^6-p-cymene) (PTA)Cl2], reference compound] here?
**A.** > 100 µM

**Q.** What about the “MIC E. faecalis” value [4] of the same molecule?
**A.** >100 µM

**Q.** What about the “MIC K. pneumoniae” value [5] of the same molecule?
**A.** >100 µM

**Q.** What about the “MIC E. coli” value [6] of the same molecule?
**A.** >100 µM

**Q.** What about the “MIC S. aureus” value [7] of the same molecule?
**A.** >100 µM

**Q.** What about the IC50 [8] of the same molecule?
**A.** > 100 µM

**Q.** What about the IC50 [9] of the same molecule?
**A.** > 100 µM

**Q.** With `N.N.[Cl][Pt][Cl]` [cisplatin, reference compound] as the molecule, how does the IC50 [2] read?
**A.** 29.8 ± 1.2 µM

**Q.** What about the “S.I. MRC-5/Colo 205” value [2] of the same molecule?
**A.** 0.03

**Q.** And the “MIC E. faecalis” value [4]?
**A.** >100 µM

**Q.** What about the “MIC K. pneumoniae” value [5] of the same molecule?
**A.** >100 µM

**Q.** What about the “MIC E. coli” value [6] of the same molecule?
**A.** >100 µM

**Q.** What about the “MIC S. aureus” value [7] of the same molecule?
**A.** >100 µM

**Q.** What about the IC50 [8] of the same molecule?
**A.** 5.58 ± 0.7 µM

**Q.** And the “S.I. MRC-5/Colo 320” value [8]?
**A.** 0.16

**Q.** What about the IC50 [9] of the same molecule?
**A.** 0.88 ± 0.09 µM
